Laboratory results as given in paper PMC7539012, “Hyperphosphorylated tau aggregation and cytotoxicity modulators screen identified prescription drugs linked to Alzheimer's disease and cognitive functions” (Scientific Reports, 2020).
Structures can show the parent of a compound that is named as a salt. Where two headings read alike, the source gives them in different places.

System: T1, 1N4R p-tau
T1 construct: made in house; host or cells: E. coli (PIMAX system)
Test: p-tau aggregation modulator screen of 1280-compound library (ThS fluorescence net change over 16 h);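 also: 30 µM compound with 6 µM p-tau over 16 h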
Type: biochemical

[1] = 1280-compound library screen, […]
[2] = library screen, ThS fluorescence net change over 16 h with p-tau
[3] = p-tau aggregation modulator screen of 1280-compound library, ThS fluorescence net change
[4] = 1280-compound library screen, ThS fluorescence net change over 16 h
[5] = p-tau aggregation modulator screen of the compound library, ThS fluorescence net change

## CCN[C@@H](C)Cc1cccc(C(F)(F)F)c1 [Dexfenfluramine hydrochloride]
[1]
  ThS net change: 397

## CC(=O)Oc1cccc2c1C(=O)c1c(OC(C)=O)cc(C(=O)O)cc1C2=O [Diacerein]
[2]
  ThS net change: 239

## CC(=O)Nc1c(I)c(NC(C)=O)c(I)c(C(=O)O)c1I.O.O [Diatrizoic acid dihydrate]
[1]
  ThS net change: 407

## CC1=NS(=O)(=O)c2cc(Cl)ccc2N1 [Diazoxide]
[3]
  ThS net change: 354

## CN(C)CCN1C(=O)c2ccccc2N(C)c2ccccc21.Cl [Dibenzepine hydrochloride]
[3]
  ThS net change: 368

## CCCCOc1cc(C(=O)NCCN(CC)CC)c2ccccc2n1 [Dibucaine]
[2]
  ThS net change: 296

## NS(=O)(=O)c1cc(Cl)c(Cl)c(S(N)(=O)=O)c1 [Dichlorphenamide]
[4]
  ThS net change: 404

## N#CC(c1ccc(Cl)cc1)c1c(Cl)cc(-n2ncc(=O)[nH]c2=O)cc1Cl (stereo not drawn) [Diclazuril]
[5]
  ThS net change: 507

## O=C(O)Cc1ccccc1Nc1c(Cl)cccc1Cl [Diclofenac sodium]
[3]
  ThS net change: 376

## Cc1onc(-c2c(Cl)cccc2Cl)c1C(=O)N[C@@H]1C(=O)N2[C@@H]1SC(C)(C)[C@@H]2C(=O)[O-].O.[Na+] [Dicloxacillin sodium salt hydrate]
  ThS net change: 415

## O=c1oc2ccccc2c(O)c1Cc1c(O)c2ccccc2oc1=O [Dicumarol]
[3]
  ThS net change: 363

## CCN(CC)CCOC(=O)C1(C2CCCCC2)CCCCC1 [Dicyclomine hydrochloride]
[2]
  ThS net change: 282

## O=c1[nH]cnc2c1ncn2[C@H]1CC[C@@H](CO)O1 [Didanosine]
[2]
  ThS net change: 321

## C/C=C(/C(=C/C)c1ccc(O)cc1)c1ccc(O)cc1 [Dienestrol]
[4]
  ThS net change: 410

## CCN(CC)C(=O)N1CCN(C)CC1 [Diethylcarbamazine citrate]
[4]
  ThS net change: 391

## CC(=O)OCC(=O)[C@@]1(OC(C)=O)[C@@H](C)C[C@H]2[C@@H]3C[C@H](F)C4=CC(=O)C=C[C@]4(C)[C@@]3(F)[C@@H](O)C[C@@]21C [Diflorasone Diacetate]
[4]
  ThS net change: 407

## O=C(O)c1cc(-c2ccc(F)cc2F)ccc1O [Diflunisal]
[2]
  ThS net change: 304

## C[C@]12CC[C@H](O)C[C@H]1CC[C@@H]1[C@@H]2CC[C@]2(C)[C@@H](C3=CC(=O)OC3)CC[C@]12O [Digitoxigenin]
[1]
  ThS net change: 383

## C[C@]12CC[C@H](O)C[C@H]1CC[C@@H]1[C@@H]2C[C@@H](O)[C@]2(C)[C@@H](C3=CC(=O)OC3)CC[C@]12O [Digoxigenin]
[5]
  ThS net change: 440

## C[C@H]1O[C@@H](O[C@H]2[C@@H](O)C[C@H](O[C@H]3[C@@H](O)C[C@H](O[C@H]4CC[C@@]5(C)[C@H](CC[C@@H]6[C@@H]5C[C@@H](O)[C@]5(C)[C@@H](C7=CC(=O)OC7)CC[C@]65O)C4)O[C@@H]3C)O[C@@H]2C)C[C@H](O)[C@@H]1O [Digoxin]
[1]
  ThS net change: 404

## CN1C[C@H](C(=O)N[C@]2(C)O[C@@]3(O)[C@@H]4CCCN4C(=O)[C@H](Cc4ccccc4)N3C2=O)CC2c3cccc4[nH]cc(c34)C[C@H]21.CN1C[C@H](C(=O)N[C@]2(C)O[C@@]3(O)[C@@H]4CCCN4C(=O)[C@H](Cc4ccccc4)N3C2=O)C[C@@H]2c3cccc4[nH]cc(c34)C[C@H]21.O=C(O)C(O)C(O)C(=O)O (stereo partly drawn) [Dihydroergotamine tartrate]
p-tau aggregation modulator screen of 1280-compound library, […]
  ThS net change: 342

## CN[C@@H]1[C@H](O[C@H]2[C@H](O[C@H]3[C@H](O)[C@@H](O)[C@H](NC(=N)N)[C@@H](O)[C@@H]3NC(=N)N)O[C@@H](C)[C@]2(O)CO)O[C@@H](CO)[C@H](O)[C@H]1O [Dihydrostreptomycin sulfate]
[3]
  ThS net change: 331

## COc1cc(C(=O)OCCCN2CCCN(CCCOC(=O)c3cc(OC)c(OC)c(OC)c3)CC2)cc(OC)c1OC.Cl.Cl [Dilazep dihydrochloride]
[2]
  ThS net change: 286

## CN(C(=O)C(Cl)Cl)c1ccc(OC(=O)c2ccco2)cc1 [Diloxanide furoate]
[3]
  ThS net change: 371

## COc1ccc([C@@H]2Sc3ccccc3N(CCN(C)C)C(=O)[C@@H]2OC(C)=O)cc1 [Diltiazem hydrochloride]
  ThS net change: 308

## CN(C)CCCSC(=N)N.Cl.Cl [Dimaprit dihydrochloride]
[5]
  ThS net change: 436

## CN(C)CCOC(c1ccccc1)c1ccccc1.Cn1c(=O)c2[nH]c(Cl)nc2n(C)c1=O [Dimenhydrinate]
[3]
  ThS net change: 345

## CC1(C)OC(=O)NC1=O [Dimethadione]
[4]
  ThS net change: 381

## CCCCc1cc2ccccc2c(OCCN(C)C)n1 [Dimethisoquin hydrochloride]
[4]
  ThS net change: 394

## CCCCC[C@H](O)/C=C/[C@@H]1[C@@H](C/C=C\CCCC(=O)O)[C@@H](O)C[C@H]1O [Dinoprost trometamol]
[4]
  ThS net change: 384

## COc1ccc(-c2cc(=O)c3c(O)cc(O[C@@H]4O[C@H](CO[C@@H]5O[C@@H](C)[C@H](O)[C@@H](O)[C@H]5O)[C@@H](O)[C@H](O)[C@H]4O)cc3o2)cc1O [Diosmin]
[2]
  ThS net change: 211

## COc1ccc(C(=O)c2ccccc2O)c(O)c1 [Dioxybenzone]
[2]
  ThS net change: 296

## O=C(Nc1ccccc1)OCC(CN1CCCCC1)OC(=O)Nc1ccccc1 (stereo not drawn) [Diperodon hydrochloride]
[3]
  ThS net change: 347
